These results are taken from patent US12012574B2, “Process for removing dry surface biofilm” (Whiteley Corporation Pty. Ltd., priority 2013, dated 2024).

Assay [1] has as its system 12 day dry surface biofilm (Staphylococcus aureus ATCC 25923). The assay is described as follows: Initial screening using TOC to assess removal of dry surface biofilm. Format: cell-based. The settings on record: for TOC Coupons with Biofilm: biofilm coated Pyrex coupons after cleaning, Table 14 dilution; for TOC due to biofilm: biofilm coupon TOC minus blank coupon TOC; for TOC Blank coupons: fresh clean coupons exposed to test product at Table 14 dilution; for % Reduction (TOC): relative to negative control (Milli-Q water).

For assay [2], the system named is 12 day dry surface biofilm. The assay is described as follows: Bacterial reduction from 12 day dry surface biofilm, clean and dirty conditions (Examples 15, 16). Format: cell-based, Staphylococcus aureus. To be noted: for Log reduction: 5 minute contact time. As to the method:
The bacterial reductions obtained from a 12 day dry surface biofilm were assessed under clean conditions using Example 9, Chlorclean tablets and a generic SDIC tablet
Each test product was dissolved in water.
Coupons coated in 12-day dry surface biofilm were produced as per Example 8. 2 ml of each test solution, followed by 2 ml of water were added to the wells in a tissue culture plate.
After a 5 minute contact time, coupons were removed from the disinfectant solutions, rinsed twice using 30 ml phosphate buffered saline for 5 seconds, and then placed into 5 ml tubes containing 2 ml of a neutralizer solution comprising 6% Tween 80 plus 1% sodium thiosulfate plus 5% bovine serum plus 10% Bovine Serum Albumin.
The tubes were sonicated for 20 minutes and then vortexed for 2 minutes. Serial 10-fold dilutions were then made and 100 ul of neat, 10^−1, 10^−2, 10^−3 and 10^−4 dilutions were plated on Horse Blood Agar plates. The plates were incubated at 37° C. overnight and then enumerated.
Control coupons, not exposed to disinfectant were similarly worked up to allow the log reductions to be calculated
The bacterial reductions obtained from a 12 day dry surface biofilm were assessed under dirty conditions using Example 9, Chlorclean tablets and a generic SDIC tablet. Each test product was dissolved in artificial hard water containing 340 ppm CaCO3 to which was added 5% Bovine Calf Serum.
Coupons coated in 12-day dry surface biofilm were produced as per Example 8. 2 ml of each test solution, followed by 2 ml of hard water to which was added 5% bovine calf serum were added to the wells in a tissue culture plate.
Control coupons, not exposed to disinfectant were similarly worked up to allow the log reductions to be calculated.

For assay [3], the system named is 12 day dry surface biofilm. Put plainly: Protein removal from dry surface biofilm coated coupons (BCA assay). Format: cell-based, Staphylococcus aureus. The method, then:
12 day biofilm was grown on PET coupons following the methodology of Example 8. The rods containing the biofilm coated coupons were then removed and any loosely bound biofilm washed off with Milli-Q water as described in Example 8.
One rod holding three dry surface biofilm coated coupons was then placed into 30 ml of a solution of Example 9 (17 g/litre) for 10 minutes. A second rod was placed into 30 ml of a solution of Matrix (1:50 dilution), and a third rod placed into 30 ml Milli-Q water to serve as a positive control. An additional rod, holding 3 uncoated coupons was sterilized and used as a negative control.
After 10 minutes, each rod was placed into 30 ml of 1M sodium hydroxide solution to elute off all remaining protein. Aliquots from each solution were then taken and tested for protein using a Bicinchroninic Acid (BCA) assay, using a micro BCA test kit (Sigma Aldrich).
In order to perform the BCA assay, a series of standard solutions of bovine serum albumin were prepared to produce a standard curve. […] The samples were then incubated for 60 minutes at 60° C., and the absorbance at 562 nm read using a spectrophotometer (see Table 17). […]

The test system of assay [4] is dry surface biofilm of S. aureus. Put plainly: Kill of organisms within dry surface biofilm (Example 18). It is filed as cell-based, Staphylococcus aureus.
Assay [5] deals with planktonic S. aureus. Put plainly: Disinfectant efficacy against planktonic bacteria (Example 17). Format: cell-based, Staphylococcus aureus. The settings on record: dirty conditions (5% bovine calf serum), 5 minutes contact time.
The subject of assay [6] is Staphylococcus aureus dry surface biofilm. The settings on record: solution containing 20,000 ppm available chlorine; cited from earlier work.
[7] abbreviates: absence of biological soil, five minutes contact time.
Where [8] appears, read: dirty conditions (presence of an organic soil), 5 minutes contact time.

In the case of `[Na+].[OH-]` [1M NaOH, sodium hydroxide], in assay [1], the “TOC Coupons with Biofilm” value came out at 0.16 µg, the “TOC due to biofilm” value is -0.01 µg, the “TOC Blank coupons” value was 0.17 µg and the “% Reduction (TOC)” value worked out at 100%.

Consider `O=c1nc([O-])n(Cl)c(=O)n1Cl.[Na+]` [SDIC, sodium diisocyanurate], for which the figures for the Neutraliser control in assay [2] (clean conditions) and in assay [2] (dirty conditions) were 0.045 and 0.018, respectively. Moreover, the Log reduction in assay [2] (clean conditions) was found to be 6.55 log; in assay [2] (dirty conditions: hard water 340 ppm CaCO3 with 5% Bovine Calf Serum), 0.007 log. In assay [3] (Example 14: protein, shorter contact time (not given)), the Percentage reduction is listed as 17.65. Besides, the “log10 reduction of biofilm viability” value in assay [4] (setting [7]) is 2.85 log10; in assay [4] (absence of biological soil, five minutes contact time, listed as SIDC), 3 log10; in assay [4] (setting [8]) it was 0.03 log10.

Consider `OO` [hydrogen peroxide], for which the “log10 reduction / activity” value in assay [5] is “completely deactivated”. Also, the “log10 reduction of biofilm viability” value was “zero and no effect” in assay [4] (setting [7]); “zero” in assay [4] (setting [8]).

In the case of `OCl` [sodium hypochlorite, Sodium hypochlorite], in assay [1], the “TOC Coupons with Biofilm” value came to 1.87 µg, the “TOC due to biofilm” value is 1.53 µg, the “TOC Blank coupons” value was 0.34 µg and the “% Reduction (TOC)” value was 79%. The survival after exposure result in assay [6] is listed as “still showing survivors”. Also, the Percentage protein reduction in assay [3] (Example 13: 10 minute contact time, calculated from positive control (Milli-Q water)) is listed as 11.50.
